Source: patent publication US20230151326A1, “Simplified Compositions and Methods for Generating Neural Stem Cells from Human Pluripotent Stem Cells” (Wisconsin Alumni Research Foundation, priority 2012, published 2023)

System: H9 hESCs
Assay: Flow cytometry of neural markers in H9 hESCs differentiated in neural differentiation media
Type: cell-based, human
Conditions: day 9, E6 medium containing 1 μM RA
Protocol: hPSCs were washed once with phosphate-buffered saline (PBS; Invitrogen), incubated with Accutase® (Invitrogen) for 3 min, and collected by centrifugation. hPSCs were then plated onto Matrigel® or VTN-NC at a density of 2×10^5 cells/cm^2 in E8 medium containing 10 μM ROCK inhibitor and cultured overnight. The following morning, cells were changed to E6 medium, E6 containing 10 μM SB431542 (Cellagentech), or E6 containing 10 μM SB431542 and 200 ng/mL recombinant human noggin (R&D Systems) to initiate differentiation. E6 medium is the same formulation as E8 medium but without FGF2 and TGFβ1. Medium was changed every day until cells were utilized for analysis. […]
Cells were harvested from 6- or 12-well plates by washing once with PBS and incubating with Accutase® for 3-5 min. […] After washing twice with PBS containing 0.75% BSA, cells were analyzed on a FACSCanto™ (BD Biosciences) and resultant data were analyzed using Cyflogic software. Positive events were determined by gating the top 1% of the IgG control histograms, and all flow data presented are from biological replicates.
H9 hESCs were seeded at 2×10^5 cells/cm^2 on Matrigel® in E8 medium plus ROCK inhibitor as described above. […] Also, the morphological characteristics of the cells at day 6 were assessed by bright field microscopy. […]

Q: For `CC1=C(/C=C/C(C)=C/C=C/C(C)=C/C(=O)O)C(C)(C)CCC1` [retinoic acid], which “SOX1 expression by flow cytometry” value is on record?
A: The value was “up to 62±16%”.
